Read-outs that look alike come from different tables or passages of the source.
What was measured:
hyperlipemia rats = test: Hyperlipemia rats (high-fat diet), biochemical indexes TG, TC, SOD, MDA; format: in vivo, SD rats
Experimental: Experiment 5 Effect of 5-Methyltetrahydrofolate Calcium on Hyperlipemia Rats
7 weeks later, one rat in the control group and one rat in the model group were sacrificed for liver tissue section to check fatty degeneration of hepatocytes (see Table 7) to confirm whether modeling was successful. The remaining 40 modeling rats were randomly divided into low-dose (1 mg·Kg−1) group, medium-dose (2 mg·Kg−1) group, high-dose (4 mg·Kg−1) group, positive drug group, and model group.
Bicyclol (place of origin: Beijing Xiehe Pharmaceutical Factory, specification: 25 mg/tablet, batch number: H20040467) was used as a positive drug.
After successful modeling, rats were administered drugs with dosages as prescribed for 60 consecutive days, continued to be fed with high-fat diet, and dissected on the 61st day. Liver was harvested and weighed, liver index was calculated, right lobe tissue was taken to prepare frozen sections, and fat staining was performed with Sudan III for pathological scoring according to guidelines for diagnosis and treatment of NAFLD. Another liver tissue was taken to prepare homogenate, and total cholesterol (TC), triglyceride (TG), malondialdehyde (MDA), and superoxide dismutase (SOD) in serum were detected.

mice after drinking = settings: n=10
Experimental: Experiment 8 Tail Suspension Test and Swimming Test in Mice after Drinking
Clean-grade male Kunming mice, weighing 18-22 g, were chosen. The test was carried out at 23° C. with a humidity of 50%. The mice ate and drank freely, adapting to the environment for 5 days before the test. Then they were divided into 5 groups: model group, normal group, high-dose 5-MTHF-Ca group, medium-dose 5-MTHF-Ca group and low-dose 5-MTHF-Ca group (16 mg·Kg−1, 8mg·Kg−1, 4mg·Kg−1),
10 mice in each group. The model group was given (by gavage) Erguotou (batch number: 201603092, specification: 2L, place of origin: Beijing Shunxin Agriculture Co., Ltd.) at 18 ml·Kg−1, and calcium folate (Lianyungang Jinkang Hexin Pharmaceutical Co., Ltd.). The high-dose, medium-dose and low-dose groups were also given the solution containing Erguotou and calcium folate. The mice were tested after 24 h. The tail suspension test is carried out by fixing the tail of a mouse so that it is suspended head down in a state of desperately struggling to escape but unable to escape. After a period of time, record the immobility time of the mouse in a desperate state in this environment to observe the therapeutic effect after administration. The head of the mouse suspended upside down was 10 cm from the bottom of the box, and two mice were suspended at a time, which were separated by a partition to avoid collision. The mice were suspended for 10 min, and the accumulated immobility time of the suspended mice was counted within the latter 5 min.

5-methyltetrahydrofolate calcium
MDA (hyperlipemia rats; 1 mg·kg−1·d−1, 60 d): 45.20 ± 8.17 nmol/mgprot | SOD (hyperlipemia rats; 1 mg·kg−1·d−1, 60 d): 234.20 ± 21.36 U/mgprot | TC (hyperlipemia rats; 1 mg·kg−1·d−1, 60 d): 1.45 ± 0.38 mmol/L | TG (hyperlipemia rats; 1 mg·kg−1·d−1, 60 d): 1.07 ± 0.33 mmol/L | MDA (hyperlipemia rats; 2 mg·kg−1·d−1, 60 d): 42.26 ± 9.35 nmol/mgprot | SOD (hyperlipemia rats; 2 mg·kg−1·d−1, 60 d): 257.41 ± 30.29 U/mgprot | TC (hyperlipemia rats; 2 mg·kg−1·d−1, 60 d): 1.57 ± 0.36 mmol/L | TG (hyperlipemia rats; 2 mg·kg−1·d−1, 60 d): 1.03 ± 0.55 mmol/L | MDA (hyperlipemia rats; 4 mg·kg−1·d−1, 60 d): 40.98 ± 11.37 nmol/mgprot | SOD (hyperlipemia rats; 4 mg·kg−1·d−1, 60 d): 260.97 ± 30.04 U/mgprot | TC (hyperlipemia rats; 4 mg·kg−1·d−1, 60 d): 1.50 ± 0.34 mmol/L | TG (hyperlipemia rats; 4 mg·kg−1·d−1, 60 d): 1.05 ± 0.63 mmol/L | Suspension immobility time (mice after drinking; high dose 16 mg·Kg−1 with Erguotou 18 ml·Kg−1, tested after 24 h): 63.53 ± 2.98 S | Suspension immobility time (mice after drinking; low dose 4 mg·Kg−1 with Erguotou 18 ml·Kg−1, tested after 24 h): 72.42 ± 4.52 S | Suspension immobility time (mice after drinking; medium dose 8 mg·Kg−1 with Erguotou 18 ml·Kg−1, tested after 24 h): 68.32 ± 3.46 S
